Data as given in PubChem BioAssay (NCI).
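In this assay, cells in 96-well plates receive the compound at five concentrations for 48 hours. Endpoints are linearly interpolated between the surrounding concentrations. TGI marks complete inhibition of growth.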

Experiments:
Experiment in all cases: growth of human tumour cells (NCI), 48 h
[1] = system: 786-0 renal
[2] = system: A498 renal
[3] = system: A549 NSCLC
[4] = system: ACHN renal
[5] = system: BT-549 breast
[6] = system: CAKI-1 renal
[7] = system: CCRF-CEM leukemia
[8] = system: COLO 205 colon
[9] = system: DU-145 prostate
[10] = system: EKVX NSCLC
[11] = system: HCT-116 colon
[12] = system: HCT-15 colon
[13] = system: HL-60(TB) leukemia
[14] = system: HOP-62 NSCLC
[15] = system: HOP-92 NSCLC
[16] = system: HS 578T breast
[17] = system: HT29 colon
[18] = system: IGROV1 ovarian
[19] = system: K-562 leukemia
[20] = system: KM12 colon
[21] = system: LOX IMVI melanoma
[22] = system: M14 melanoma
[23] = system: MALME-3M melanoma
[24] = system: MCF7 breast
[25] = system: MDA-MB-231 breast
[26] = system: MDA-MB-435
[27] = system: MDA-N
[28] = system: MOLT-4 leukemia
[29] = system: NCI-H226 lung
[30] = system: NCI-H460 lung
[31] = system: NCI-H522 lung
[32] = system: NCI/ADR-RES ovarian
[33] = system: OVCAR-3 ovarian
[34] = system: OVCAR-4 ovarian
[35] = system: OVCAR-5 ovarian
[36] = system: OVCAR-8 ovarian
[37] = system: PC-3 prostate
[38] = system: RPMI-8226 leukemia
[39] = system: RXF 393 renal
[40] = system: SF-268 CNS
[41] = system: SF-295 CNS
[42] = system: SF-539 CNS
[43] = system: SK-MEL-2 melanoma
[44] = system: SK-MEL-28 melanoma
[45] = system: SK-MEL-5 melanoma
[46] = system: SK-OV-3 ovarian
[47] = system: SN12C renal
[48] = system: SNB-19 CNS
[49] = system: SNB-75 CNS
[50] = system: SW-620 colon
[51] = system: T-47D breast
[52] = system: TK-10 renal
[53] = system: U251 CNS
[54] = system: UACC-257 melanoma
[55] = system: UACC-62 melanoma
[56] = system: UO-31 renal
[57] = system: HCC-2998 colon
[58] = system: NCI-H23 lung
[59] = system: SR leukemia

O=C(c1ccccc1Cl)n1oc2ccccc2c1=O
TGI [1]: > 100 µM | TGI [2]: > 100 µM | TGI [3]: > 100 µM | TGI [4]: > 100 µM | TGI [5]: > 100 µM | TGI [6]: > 100 µM | TGI [7]: 74 µM | TGI [8]: > 100 µM | TGI [9]: > 100 µM | TGI [10]: > 100 µM | TGI [11]: > 100 µM | TGI [12]: > 100 µM | TGI [13]: 51 µM | TGI [14]: > 100 µM | TGI [15]: > 100 µM | TGI [16]: > 100 µM | TGI [17]: > 100 µM | TGI [18]: > 100 µM | TGI [19]: > 100 µM | TGI [20]: > 100 µM | TGI [21]: > 100 µM | TGI [22]: > 100 µM | TGI [23]: > 100 µM | TGI [24]: > 100 µM | TGI [25]: > 100 µM | TGI [26]: > 100 µM | TGI [27]: > 100 µM | TGI [28]: 51.3 µM | TGI [29]: > 100 µM | TGI [30]: > 100 µM | TGI [31]: > 100 µM | TGI [32]: > 100 µM | TGI [33]: > 100 µM | TGI [34]: > 100 µM | TGI [35]: > 100 µM | TGI [36]: > 100 µM | TGI [37]: > 100 µM | TGI [38]: 68.8 µM | TGI [39]: > 100 µM | TGI [40]: > 100 µM | TGI [41]: > 100 µM | TGI [42]: > 100 µM | TGI [43]: > 100 µM | TGI [44]: > 100 µM | TGI [45]: > 100 µM | TGI [46]: > 100 µM | TGI [47]: > 100 µM | TGI [48]: > 100 µM | TGI [49]: > 100 µM | TGI [50]: > 100 µM | TGI [51]: > 100 µM | TGI [52]: > 100 µM | TGI [53]: > 100 µM | TGI [54]: > 100 µM | TGI [55]: > 100 µM | TGI [56]: > 100 µM

CC(=O)NC(Cc1ccccc1)NC(=O)O (centres undefined)
TGI [1]: > 100 µM | TGI [2]: > 100 µM | TGI [3]: > 100 µM | TGI [4]: > 100 µM | TGI [5]: > 100 µM | TGI [6]: > 100 µM | TGI [7]: > 100 µM | TGI [8]: > 100 µM | TGI [9]: > 100 µM | TGI [10]: > 100 µM | TGI [57]: > 100 µM | TGI [11]: > 100 µM | TGI [12]: > 100 µM | TGI [13]: > 100 µM | TGI [14]: > 100 µM | TGI [15]: > 100 µM | TGI [17]: > 100 µM | TGI [18]: > 100 µM | TGI [19]: > 100 µM | TGI [20]: > 100 µM | TGI [21]: > 100 µM | TGI [22]: > 100 µM | TGI [23]: > 100 µM | TGI [24]: > 100 µM | TGI [25]: > 100 µM | TGI [26]: > 100 µM | TGI [27]: > 100 µM | TGI [28]: > 100 µM | TGI [29]: > 100 µM | TGI [58]: > 100 µM | TGI [30]: > 100 µM | TGI [31]: > 100 µM | TGI [32]: > 100 µM | TGI [33]: > 100 µM | TGI [34]: > 100 µM | TGI [35]: > 100 µM | TGI [36]: > 100 µM | TGI [37]: > 100 µM | TGI [38]: > 100 µM | TGI [39]: > 100 µM | TGI [40]: > 100 µM | TGI [41]: > 100 µM | TGI [42]: > 100 µM | TGI [43]: > 100 µM | TGI [44]: > 100 µM | TGI [45]: > 100 µM | TGI [46]: > 100 µM | TGI [47]: > 100 µM | TGI [48]: > 100 µM | TGI [49]: > 100 µM | TGI [59]: > 100 µM | TGI [50]: > 100 µM | TGI [51]: > 100 µM | TGI [52]: > 100 µM | TGI [53]: > 100 µM | TGI [54]: > 100 µM | TGI [55]: > 100 µM | TGI [56]: > 100 µM

Nc1[nH]c(=S)nc2nc3c(c(-c4ccccc4)c12)CCCC3
TGI [3]: > 100 µM | TGI [4]: > 100 µM | TGI [5]: > 100 µM | TGI [6]: > 100 µM | TGI [8]: > 100 µM | TGI [9]: > 100 µM | TGI [10]: > 100 µM | TGI [11]: > 100 µM | TGI [12]: > 100 µM | TGI [13]: > 100 µM | TGI [14]: > 100 µM | TGI [16]: > 100 µM | TGI [17]: > 100 µM | TGI [18]: > 100 µM | TGI [19]: > 100 µM | TGI [20]: > 100 µM | TGI [21]: > 100 µM | TGI [22]: > 100 µM | TGI [23]: > 100 µM | TGI [24]: > 100 µM | TGI [25]: > 100 µM | TGI [26]: > 100 µM | TGI [27]: > 100 µM | TGI [28]: > 100 µM | TGI [58]: > 100 µM | TGI [30]: > 100 µM | TGI [32]: > 100 µM | TGI [33]: > 100 µM | TGI [34]: > 100 µM | TGI [35]: > 100 µM | TGI [36]: > 100 µM | TGI [37]: > 100 µM | TGI [38]: > 100 µM | TGI [40]: > 100 µM | TGI [41]: > 100 µM | TGI [42]: > 100 µM | TGI [45]: > 100 µM | TGI [46]: > 100 µM | TGI [47]: > 100 µM | TGI [48]: > 100 µM | TGI [49]: > 100 µM | TGI [59]: > 100 µM | TGI [50]: > 100 µM | TGI [51]: > 100 µM | TGI [52]: > 100 µM | TGI [53]: > 100 µM | TGI [55]: > 100 µM | TGI [56]: > 100 µM

CCOC(=O)CC[C@H](NC(=O)N[C@H](C)c1ccccc1)C(=O)OCC
TGI [1]: > 100 µM | TGI [2]: > 100 µM | TGI [3]: > 100 µM | TGI [4]: > 100 µM | TGI [5]: > 100 µM | TGI [6]: > 100 µM | TGI [7]: 54.2 µM | TGI [8]: 32.7 µM | TGI [9]: > 100 µM | TGI [10]: > 100 µM | TGI [57]: 72.3 µM | TGI [11]: > 100 µM | TGI [12]: > 100 µM | TGI [13]: > 100 µM | TGI [14]: > 100 µM | TGI [15]: 39.3 µM | TGI [17]: > 100 µM | TGI [18]: > 100 µM | TGI [19]: > 100 µM | TGI [20]: > 100 µM | TGI [21]: > 100 µM | TGI [22]: 28.2 µM | TGI [24]: > 100 µM | TGI [25]: > 100 µM | TGI [26]: 69.1 µM | TGI [27]: 38.2 µM | TGI [28]: 52.5 µM | TGI [29]: > 100 µM | TGI [58]: > 100 µM | TGI [30]: > 100 µM | TGI [32]: 75.9 µM | TGI [33]: 41.5 µM | TGI [34]: > 100 µM | TGI [35]: > 100 µM | TGI [36]: > 100 µM | TGI [37]: > 100 µM | TGI [38]: > 100 µM | TGI [41]: > 100 µM | TGI [42]: 45.5 µM | TGI [43]: 52.8 µM | TGI [44]: 43.8 µM | TGI [45]: > 100 µM | TGI [46]: > 100 µM | TGI [47]: > 100 µM | TGI [48]: > 100 µM | TGI [59]: > 100 µM | TGI [50]: > 100 µM | TGI [52]: > 100 µM | TGI [53]: > 100 µM | TGI [54]: 46.6 µM | TGI [55]: 34.8 µM | TGI [56]: > 100 µM
